Source: ChEMBL document CHEMBL1667835, “Optimisation of 6-substituted isoquinolin-1-amine based ROCK-I inhibitors” (Bioorg Med Chem Lett, 2011)

How the values were obtained:
[1] = Oral bioavailability in C57 mouse; format: ADME, organism-based; details: in vivo
[2] = Plasma clearance in C57 mouse; format: ADME, organism-based
[3] = Volume of distribution at steady state in C57 mouse; format: ADME, organism-based; details: in vivo, read-out: Vdss
[4] = Half life in C57 mouse; format: ADME, organism-based; details: in vivo
[5] = Apparent permeability from apical to basolateral side of human Caco2 cells; format: ADME, cell-based; details: Caco-2, read-out: permeability
[6] = Apparent permeability from basolateral to apical side of human Caco2 cells; format: ADME, cell-based; details: Caco-2, read-out: permeability
Hepatocyte [7] = experiment: Intrinsic clearance in rat hepatocytes assessed per 1 x 10^6 cells; format: ADME, cell-based, Liver
Liver microsomes [8] = experiment: Intrinsic clearance in human liver microsomes assessed per mg of protein; format: ADME, Microsome
Liver microsomes [9] = experiment: Intrinsic clearance in rat liver microsomes assessed per mg of protein; format: ADME, Microsome
[10] = Intrinsic clearance in mouse liver microsomes assessed per mg of protein; format: ADME, Microsome
Hepatocyte [11] = experiment: Intrinsic clearance in human hepatocytes assessed per 1 x 10^6 cells; format: ADME, cell-based, Liver

| bioavailability [1] | Papp A→B [5] | Papp B→A [6] | clearance (Hepatocyte [7]) | SMILES | also measured |
| --- | --- | --- | --- | --- | --- |
| > 75% |  |  |  | Nc1nccc2cc(O[C@H]3CCCNC3)ccc12 |  |
| 57% |  |  |  | Nc1nccc2c(S(=O)(=O)N3CCCNCC3)cccc12 | clearance [2]: 34 mL/min/kg; Vd [3]: 2.4 L/kg; half-life [4]: 45 min |
|  | 11.6 ×10⁻⁶ cm/s | 17.6 ×10⁻⁶ cm/s | 21 µL/min/1e6 cells | c1ccc(CN2CCC[C@H](Oc3ccc4cnccc4c3)C2)cc1 |  |
|  | 14.3 ×10⁻⁶ cm/s | 11.2 ×10⁻⁶ cm/s | < 6 µL/min/1e6 cells | O=c1[nH]ccc2cc(O[C@H]3CCCNC3)ccc12 | clearance (Liver microsomes [8]): < 12 µL/min/mg; clearance (Liver microsomes [9]): 24 µL/min/mg; clearance [10]: 17 µL/min/mg; clearance (Hepatocyte [11]): 2 µL/min/1e6 cells |
